According to patent US20230033360A1, “COMPOUNDS AS CD73 INHIBITORS” (BioArdis LLC, priority 2019, published 2023):

What follows are compounds tested against T1, Recombinant Human 5′-Nucleotidase (CD73) (Homo sapiens, UniProt P21589) (assay: CD73 Enzyme Assay (PiColorLock inorganic phosphate detection, AMP substrate)). Conditions: human CD73 0.5 nM, AMP 30 μM, 20 min at 37° C., absorbance 635 nm; read-out: Potency (IC50).
T1 construct: CHO derived CD73 (Trp27-Lys547), with a C-terminal 6-His tag; 6-His (C); purchased R&D 5795-EN; host or cells: CHO
T1 sequence (P21589 27-547): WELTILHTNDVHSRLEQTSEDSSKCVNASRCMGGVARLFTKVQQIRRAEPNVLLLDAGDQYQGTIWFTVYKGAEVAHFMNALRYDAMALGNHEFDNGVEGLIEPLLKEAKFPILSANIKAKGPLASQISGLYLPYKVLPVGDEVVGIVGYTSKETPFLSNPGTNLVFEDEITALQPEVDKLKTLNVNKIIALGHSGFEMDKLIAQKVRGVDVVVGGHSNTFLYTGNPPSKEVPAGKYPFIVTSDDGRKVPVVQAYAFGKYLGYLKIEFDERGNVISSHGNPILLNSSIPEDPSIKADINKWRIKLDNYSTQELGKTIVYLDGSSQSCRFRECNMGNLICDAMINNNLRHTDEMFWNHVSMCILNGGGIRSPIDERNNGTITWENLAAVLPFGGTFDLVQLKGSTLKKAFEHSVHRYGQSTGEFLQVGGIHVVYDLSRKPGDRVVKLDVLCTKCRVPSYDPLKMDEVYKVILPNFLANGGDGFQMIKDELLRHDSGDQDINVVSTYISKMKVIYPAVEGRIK
Assay type: biochemical
Text: Soluble recombinant CD73 catalyzes the conversion of adenosine monophosphate (AMP) to adenosine and inorganic phosphate. The phosphate detection reagent, PiColorLock™ (Innova Bioscience, Cat #303-0125) is based on the change in absorbance of the dye malachite green in the presence of inorganic phosphate (Pi) and this property can be exploited to measure any enzyme that generates Pi. Recombinant Human 5′-Nucleotidase (CD73) (R&D #5795-EN, CHO derived CD73 (Trp27-Lys547), with a C-terminal 6-His tag) was used in the enzymatic assay. This assay, run in a 384-well plate format (Corning® NBS™ 384 well plates, Cat #3640), is a generic method for measuring inorganic phosphate. The basic assay procedure involves two steps: 1) Enzyme reaction: The CD73 enzyme (R&D #5795-EN) is incubated in the presence or absence of compounds. AMP (sigma, cat #01930) is added to start the […] reaction. 2) Detection step: Gold mix is added to the assay system, then stabilizers are added. After incubation the absorbance of the solution is read at OD 635 nm. The recorded OD signal is proportional to the enzyme activity.
Briefly, 25 μl human CD73 (0.5 nM final concentration) in the enzymatic buffer solutions (20 mM Tris, 25 mM NaCl, 1 mM MgCl2, pH 7.5, 0.005% Tween-20) were mixed with various concentrations of the test compound (dissolved in 100% DMSO). These solutions were incubated for 15 min at 25° C., and subsequently 25 μl AMP (30 μM final concentration) was added to start the reaction. The final reaction mixture of enzyme-substrate-compound was incubated for 20 min at 37° C. Meanwhile ‘Gold mix’ was prepared shortly before use by adding 1/100 vol. of accelerator to the PiColorLock™ Gold reagent. 12 μL/well of the ‘Gold mix’ was added to assay plate containing 50 μL enzyme reaction buffer and incubated at 25° C. for 5 min. 5 μL/well stabilizer was added to the assay plate and incubated at 25° C. for 30 min. The absorbance of the well solutions was measured at 635 nm on a Spark 10M instrument (TECAN).
The percent (%) inhibition at each concentration of a compound was calculated relative to the […] value in the Max and Min control wells contained within each assay plate. The Max control wells contained enzyme and substrate as 0% inhibition, and the Min control wells only contained substrate without enzyme as 100% inhibition. The concentrations and percent inhibition values for a test compound are plotted and the concentration of the compound required to achieve 50% inhibition (IC50) was determined with a four-parameter logistic dose response equation.
With `C[C@H](Nc1cc(Cl)nn2c(C3O[C@H](COP(=O)(O)CP(=O)(O)O)[C@@H](O)[C@@H]3F)cnc12)c1ccccc1F` (stereo partly drawn) [Example S19, (((((2R,3R,4S)-5-(6-chloro-8-(((S)-1-(2-fluorophenyl)ethyl)amino)imidazo[1,2-b]pyridazin-3-yl)-4-fluoro-3-hydroxytetrahydrofuran-2-yl)methoxy)(hydroxy)phosphoryl)methyl)phosphonic acid] the IC50 was 10 to 99 nM. `O=P(O)(O)CP(=O)(O)OC[C@H]1OC(c2cnc3c(N4CCCC4)cc(Cl)nn23)[C@H](O)[C@@H]1O` (stereo partly drawn) [Example S20, (((((2R,3S,4R)-5-(6-chloro-8-(pyrrolidin-1-yl)imidazo[1,2-b]pyridazin-3-yl)-3,4-dihydroxytetrahydrofuran-2-yl)methoxy)(hydroxy)phosphoryl)methyl)phosphonic acid] was tested, and the IC50 was 1 to 9.9 nM. In the case of `O=P(O)(O)CP(=O)(O)OC[C@H]1OC(c2cnc3c(N4CCCC4)cc(Cl)nn23)[C@@H](F)[C@@H]1O` (stereo partly drawn) [Example S21, (((((2R,3R,4S)-5-(6-chloro-8-(pyrrolidin-1-yl)imidazo[1,2-b]pyridazin-3-yl)-4-fluoro-3-hydroxytetrahydrofuran-2-yl)methoxy)(hydroxy)phosphoryl)methyl)phosphonic acid], the IC50 is reported as 10 to 99 nM. `O=P(O)(O)CP(=O)(O)OC[C@H]1OC(c2cnc3c(N4CCC(F)(F)C4)cc(Cl)nn23)[C@@H](F)[C@@H]1O` (stereo partly drawn) [Example S22, (((((2R,3R,4S)-5-(6-chloro-8-(3,3-difluoropyrrolidin-1-yl)imidazo[1,2-b]pyridazin-3-yl)-4-fluoro-3-hydroxytetrahydrofuran-2-yl)methoxy)(hydroxy)phosphoryl)methyl)phosphonic acid] was tested, and the IC50 was 10 to 99 nM. `O=P(O)(O)CP(=O)(O)OC[C@H]1OC(c2cnc3c(N4CC5CC5C4)cc(Cl)nn23)[C@H](O)[C@@H]1O` (stereo partly drawn) [Example S23, (((((2R,3S,4R)-5-(8-(3-azabicyclo[3.1.0]hexan-3-yl)-6-chloroimidazo[1,2-b]pyridazin-3-yl)-3,4-dihydroxytetrahydrofuran-2-yl)methoxy)(hydroxy)phosphoryl)methyl)phosphonic acid] was tested, and the IC50 was < 1 nM. `O=P(O)(O)CP(=O)(O)OC[C@H]1OC(c2cnc3c(N4CC5CCCC5C4)cc(Cl)nn23)[C@@H](F)[C@@H]1O` (stereo partly drawn) [Example S24, (((((2R,3R,4S)-5-(6-chloro-8-(hexahydrocyclopenta[c]pyrrol-2 (1H)-yl)imidazo[1,2-b]pyridazin-3-yl)-4-fluoro-3-hydroxytetrahydrofuran-2-yl)methoxy)(hydroxy)phosphoryl)methyl)phosphonic acid] showed an IC50 of 1 to 9.9 nM. Compound `O=P(O)(O)CP(=O)(O)OC[C@H]1OC(c2cnc3c(N4CCc5ccccc54)cc(Cl)nn23)[C@H](O)[C@@H]1O` (stereo partly drawn) [Example S25, (((((2R,3S,4R)-5-(6-chloro-8-(indolin-1-yl)imidazo[1,2-b]pyridazin-3-yl)-3,4-dihydroxytetrahydrofuran-2-yl)methoxy)(hydroxy)phosphoryl)methyl)phosphonic acid] has an IC50 of 1 to 9.9 nM. `O=P(O)(O)CP(=O)(O)OC[C@H]1OC(c2cnc3c(N4CCCCC4)cc(Cl)nn23)[C@H](O)[C@@H]1O` (stereo partly drawn) [Example S26, (((((2R,3S,4R)-5-(6-chloro-8-(piperidin-1-yl)imidazo[1,2-b]pyridazin-3-yl)-3,4-dihydroxytetrahydrofuran-2-yl)methoxy)(hydroxy)phosphoryl)methyl)phosphonic acid] gave an IC50 of 1 to 9.9 nM. For `O=P(O)(O)CP(=O)(O)OC[C@H]1OC(c2cnc3c(N4CCCC[C@H]4c4ccccc4)cc(Cl)nn23)[C@H](O)[C@@H]1O` (stereo partly drawn) [Example S27, (((((2R,3S,4R)-5-(6-chloro-8-((S)-2-phenylpiperidin-1-yl)imidazo[1,2-b]pyridazin-3-yl)-3,4-dihydroxytetrahydrofuran-2-yl)methoxy)(hydroxy)phosphoryl)methyl)phosphonic acid], the IC50 was 1 to 9.9 nM. For `O=P(O)(O)CP(=O)(O)OC[C@H]1OC(c2cnc3c(N4CCc5ccccc5C4)cc(Cl)nn23)[C@H](O)[C@@H]1O` (stereo partly drawn) [Example S28, (((((2R,3S,4R)-5-(6-chloro-8-(3,4-dihydroisoquinolin-2 (1H)-yl)imidazo[1,2-b]pyridazin-3-yl)-3,4-dihydroxytetrahydrofuran-2-yl)methoxy)(hydroxy)phosphoryl)methyl)phosphonic acid], the IC50 was 1 to 9.9 nM. Compound `O=P(O)(O)CP(=O)(O)OC[C@H]1OC(c2cnc3c(N4CCC(F)(F)CC4)cc(Cl)nn23)[C@H](O)[C@@H]1O` (stereo partly drawn) [Example S29, (((((2R,3S,4R)-5-(6-chloro-8-(4,4-difluoropiperidin-1-yl)imidazo[1,2-b]pyridazin-3-yl)-3,4-dihydroxytetrahydrofuran-2-yl)methoxy)(hydroxy)phosphoryl)methyl)phosphonic acid] has an IC50 of 1 to 9.9 nM. `O=P(O)(O)CP(=O)(O)OC[C@H]1OC(c2cnc3c(OC4CCCC4)cc(Cl)nn23)[C@H](O)[C@@H]1O` (stereo partly drawn) [Example S30, (((((2R,3S,4R)-5-(6-chloro-8-(cyclopentyloxy)imidazo[1,2-b]pyridazin-3-yl)-3,4-dihydroxytetrahydrofuran-2-yl)methoxy)(hydroxy)phosphoryl)methyl)phosphonic acid] showed an IC50 of 1 to 9.9 nM. `O=P(O)(O)CP(=O)(O)OC[C@H]1O[C@@H](c2cnc3c(NC4CCCC4)cc(Cl)nn23)[C@@H](F)[C@@H]1O` [Example S31, (((((2R,3R,4S,5S)-5-(6-chloro-8-(cyclopentylamino)imidazo[1,2-b]pyridazin-3-yl)-4-fluoro-3-hydroxytetrahydrofuran-2-yl)methoxy)(hydroxy)phosphoryl)methyl)phosphonic acid] showed an IC50 of 10 to 99 nM. `CN(c1cc(Cl)nn2c([C@@H]3O[C@H](COP(=O)(O)CP(=O)(O)O)[C@@H](O)[C@H]3O)cnc12)C1CCCC1` [Example S32] was tested, and the IC50 was 1 to 9.9 nM. `O=P(O)(O)CP(=O)(O)OC[C@H]1O[C@@H](c2cnc3c(NC45CCC(CC4)C5)cc(Cl)nn23)[C@H](O)[C@@H]1O` [Example S33, [({[(2R,3S,4R,5S)-5-(8-{bicyclo[2.2.1]heptan-1-ylamino}-6-chloroimidazo[1,2-b]pyridazin-3-yl)-3,4-dihydroxyoxolan-2-yl]methoxy}(hydroxy)phosphoryl)methyl]phosphonic acid] gave an IC50 of 1 to 9.9 nM. With `O=P(O)(O)CP(=O)(O)OC[C@H]1O[C@@H](c2cnc3c(N4CCC[C@H]4c4ccccc4F)cc(Cl)nn23)[C@H](O)[C@@H]1O` [Example S34, (((((2R,3S,4R,5S)-5-(6-chloro-8-((S)-2-(2-fluorophenyl)pyrrolidin-1-yl)imidazo[1,2-b]pyridazin-3-yl)-3,4-dihydroxytetrahydrofuran-2-yl)methoxy)(hydroxy)phosphoryl)methyl)phosphonic acid] the IC50 was 1 to 9.9 nM. In the case of `O=P(O)(O)CP(=O)(O)OC[C@H]1O[C@@H](c2cnc3c(N4CCC(F)(F)C4)cc(Cl)nn23)[C@H](O)[C@@H]1O` [Example S35, (((((2R,3S,4R,5S)-5-(6-chloro-8-(3,3-difluoropyrrolidin-1-yl)imidazo[1,2-b]pyridazin-3-yl)-3,4-dihydroxytetrahydrofuran-2-yl)methoxy)(hydroxy)phosphoryl)methyl)phosphonic acid], the IC50 is reported as 1 to 9.9 nM. `C[C@H](Nc1cc(Cl)nn2c([C@@H]3O[C@H](COP(=O)(O)CP(=O)(O)O)[C@@H](O)[C@H]3O)ncc12)c1ccccc1F` [Example S37, (((((2R,3S,4R,5S)-5-(2-chloro-4-(((S)-1-(2-fluorophenyl)ethyl)amino)imidazo[1,5-b]pyridazin-7-yl)-3,4-dihydroxytetrahydrofuran-2-yl)methoxy)(hydroxy)phosphoryl)methyl)phosphonic acid] showed an IC50 of 1 to 9.9 nM.
